Laboratory results from paper PMC7054612, “In vitro and in vivo pharmacokinetic characterization of LMT-28 as a novel small molecular interleukin-6 inhibitor” (Asian-Australasian Journal of Animal Sciences, 2019).
Values after ≈ are worked out from the molar mass of the structure shown. Like-named read-outs stand apart in the source and are kept apart here.

Experiments:
[1] = tested on: IL-6-induced STAT3 activation; assay: Western blot analysis for inhibitory effect on IL-6-induced signaling (p-STAT3) in HepG2 cells; type: cell-based; conditions: HepG2 cells pre-treated with LMT-28 (1, 3, 10, 30, 100 μM) for 1 h, then IL-6 10 ng/mL for 10 min; Western blotting
Experimental: HepG2 cells were seeded in MEM media (Welgene, Gyeongsan, Korea) with 10% (v/v) feta bovine serum, streptomycin (100 U/mL), and penicillin (100 U/mL; Life Technologies, Carlsbad, CA, USA). After seeding, cells were starved overnight, treated with LMT-28 for 1 h, and stimulated with IL-6 (10 ng/mL; R&D Systems, Minneapolis, MN, USA) for 10 min. Cells were treated with cell lysis buffer (Promega, Madison, WI, USA) for 30 min on ice. Cell lysates were separated on an 8% sodium dodecyl sulfate-polyacrylamide gel electrophoresis gel, then transferred to nitrocellulose membranes (Schleicher & Schuell, Dassel, Germany). The membranes were blocked overnight in Tris-buffered solution (50 mM Tris-HCl [pH 7.4], 150 mM NaCl, 0.1% Tween 20) containing 5% nonfat dry milk at 4°C and then incubated for 1 h with the appropriate primary Abs against p-STAT3 (MilliporeSigma, Burlington, MA, USA) or α-tubulin in Tris-buffered solution (TBST; 50 mM Tris-HCl [pH 7.4], 150 mM NaCl, 0.1% Tween 20) containing 5% nonfat dry milk at room temperature. The membranes were washed (10 min, five times) and incubated for 1 h with horseradish peroxidase-conjugated secondary Abs diluted to 1:6,000. After 10 washes, the membranes were incubated with enhanced chemiluminescence reagents (MilliporeSigma, USA) and chemiluminescent signals were visualized using X-ray film.

[2] = Lipophilicity (LogP) by GLpKa, D-PAS method; type: physicochemical
Experimental: (§1) The shake-flask method was applied to measure the equilibrium solubility of LMT-28 [16, 17]. Excess amount of LMT-28 was added into the water and the suspension was shaken at 25°C during 24 h in a flask for equilibrium solubility. The solution, then, was filtered and the concentration of LMT-28 in the filtered solution was quantified using ultra HPLC (ThermoFisher Scientific, Waltham, MA, USA) at wavelength 254 nm. The lipophilicity of LMT-28 was measured by using GLpKa (Pion, Cambridge, MA, USA) based on dip-probe absorption spectroscopy (D-PAS) method. The resultant values were calculated by LogP software (Pion, USA) and the computational predictions for number of hydrogen bond donors, hydrogen bond acceptors, rotatable bonds and predicted polar surface area (PSA) and LogS were made using Percepta software (ACD/Labs; Toronto, Canada).

[3] = Equilibrium solubility in water, 24 h shake-flask method; type: physicochemical; conditions: thermodynamic from solid, 25°C
Experimental: as §1

[4] = Metabolic stability in rat liver microsomes; type: in vitro ADME; conditions: pH 7.4
Experimental: (§2) Metabolic stability using rat and human liver microsomes (Corning Gentest, USA) of LMT-28 was performed according to previous reported protocol. In brief, NADPH regeneration solution (Corning Gentest, USA) was added to initiate the metabolic reaction after mixing LMT-28 (final concentrations; 1 μM) with human or rat liver microsomes (0.5 mg protein/mL) in 100 mM potassium phosphate buffer (pH 7.4). After incubation at 37°C at 0, 10, 30, and 60 min, the reaction was terminated by adding three times of ice-cold acetonitrile containing internal standard (carbamazepine 10 ng/mL). After mixing by vortex and centrifugation at 10,000 g for 5 min at 4°C, the supernatants were transferred to fresh LC vials. Samples (5 μL) were analyzed by directly injection into a liquid chromatography-tandem mass spectrometry (LC-MS/MS) system for the quantification of LMT-28.
(§3) The metabolic half-life and in vitro intrinsic clearance of LMT-28 were calculated by next equations [19].
(§4) Half-life (t1/2) (h)=-0.693/KCLint,in vitro(μL/min/mg protein)=(0.693/t1/2,microsomal)×(μL incubation/mg microsomal protein)CLint,in vivo(mL/min/kg)=(0.693/t1/2,microsomal)×(mL incubation/mg microsomal protein)×(mg microsomal protein/g liver)×(g liver/kg body weight)
(§5) where K is the elimination rate constant of LMT-28 in the microsomal metabolic reaction, half-life (t1/2) is microsomal metabolic half-life, CLint, in vitro is in vitro intrinsic clearance, and CLint, in vivo is in vivo intrinsic clearance. The liver weight relative to the body weight in the rat and human are 40 and 21 g/kg, respectively.

[5] = Metabolic stability in human liver microsomes; type: in vitro ADME; conditions: pH 7.4
Experimental: as §2, §3, §4, §5

[6] = MDCK cell permeability assay; type: in vitro ADME, canine; conditions: dog, MDCK cell monolayers
Experimental: In order to determine cell permeability of LMT-28, Madin-Darby canine kidney (MDCK) cells were cultured and seeded at a density of 6×10^4cells/cm^2 in 12-well Transwell plates. After checking cell monolayer integrity, the transepithelial electrical resistance (TEER) values (>500 ohms) were measured using an EVOM epithelial voltohmmeter (World Precision Instruments, Sarasota, FL, USA). After pre-incubation for 30 min at 37°C, LMT-28 (final concentrations of 2, 10, and 50 μM) was added to the donor wells in transport assay system. Sample aliquots (100 μL) were collected every 30 min for 120 min, and the same volume of fresh buffer added. The aliquots were stored at −20°C until quantitative analysis of LMT-28 concentrations by LC–MS/MS system. The apparent permeability coefficient (Papp, cm/s) was calculated as following equation: […]
where dQ/dt is the permeation rate across cell monolayer, A is the surface area of the monolayer (0.33 cm^2), and C0 is the initial donor concentration.

[7] = Plasma protein binding assay; type: in vitro ADME
[8] = In vivo pharmacokinetic study in male BALB/c mice; conditions: for AUC(0-t): n = 4, read-out: AUC8h; for half-life: n = 4, read-out: t1/2 (terminal elimination half-life) (converted)
Experimental: To evaluate in vivo pharmacokinetics in mice, LMT-28 was dissolved in phosphate-buffered saline (pH 7.4) containing 5% (w/v) carboxymethyl cellulose (MilliporeSigma, USA) and administered orally by using oral needle and intravenously in the mouse tail vein at the dose of 5 mg/kg to male BALB/c mice (22 to 25 g) after overnight fasting. Blood samples (50 μL) were collected at 0.5, 1, 2, 4, 6, and 8 h after oral administration of LMT-28. After taking the blood samples from mice, the samples were centrifuged to obtain plasma samples at 4°C and 10,000 g and obtained plasma samples were stored at −20°C. These plasma samples (25 μL) were used for the quantification of LMT-28 concentration in mice.
(§6) The concentrations of LMT-28 in plasma or microsomal reaction solution were determined by LC-MS/MS. For the sample preparation before LC-MS/MS analysis, three times (75 μL) of acetonitrile containing internal standard (carbamazepine 10 ng/mL) were added to 25 μL aliquots of the plasma samples. The samples were vortex-mixed and centrifuged at 10,000 g for 5 min at 4°C for the protein precipitation. The supernatant (90 μL) was transferred to LC vials and 5 μL was injected onto a LC-MS/MS system.
(§7) Mass spectrometric detection of LMT-28 was performed on an API 4000 Qtrap mass spectrometer (AB Sciex, Foster City, CA, USA) equipped with a positive electrospray ionization source. The chromatographic separation was performed on Hypersil Gold C18 column (50 mm×2.1 mm i.d., 3 μm particle size; ThermoFisher Scientific, USA) with a flow rate of 0.3 mL/min. The positive multiple reaction monitoring (MRM) mode were based on the most abundant product ions at m/z 312 → 165 for LMT-28, and m/z 237 → 194 for internal standard. Other parameters were the nebulizing (GS1), 50 psi; heating (GS2), 50 psi; collision energy, 23 eV for LMT-28 and 15 eV for internal standard, respectively. Analyst software version 1.4.2 (AB Sciex, USA) was used for the analysis of LMT-28 concentrations.
The plasma concentrations versus time profiles of LMT-28 in mice were analyzed by a non-compartmental model using WinNonlin software ver 5.3 (Pharsight, Mountain View, CA, USA). The pharmacokinetic parameters such as area under the plasma concentration-time curve (AUC), peak plasma concentration (Cmax) and the time to reach a peak concentration (Tmax), terminal elimination half-life (t1/2), mean residence time (MRT) after oral administration were obtained from each mouse’s plasma concentration-time plots for LMT-28. All data were expressed as the mean±standard deviation. A value of p<0.05 by student t-test or analysis of variance analysis was considered to be statistically significant.

[9] = Stability during sample handling and processing for LC-MS/MS analysis in biological fluids; conditions: plasma or microsomal reaction solution
Experimental: as §6, §7

[10] = mouse, plasma, intravenous (i.v) 5 mg/kg, n = 4
[11] = mouse, plasma, intravenous (i.v) 5 mg/kg
[12] = mouse, plasma, oral (p.o.) 5 mg/kg, n = 4
[13] = mouse, plasma, oral (p.o.) 5 mg/kg

**Q.** With C=C(CCCCC)[C@@H](O)[C@H](C)C(=O)N1C(=O)OC[C@@H]1C(C)C [LMT-28] as the compound, how does the “Inhibition of IL-6-induced p-STAT3 expression” value [1] read?
**A.** Its value is “inhibit the IL-6-induced p-STAT3 expression in a dose-dependent manner”.

**Q.** What about the logP [2] of the same compound?
**A.** Its logP is 3.65 ± 0.22.

**Q.** What about the solubility at 24 h [3] of the same compound?
**A.** Its solubility at 24 h is 390 ± 120 µg/mL (≈ 1250 µM).

**Q.** And the half-life at 1 μM ([4]; rat liver microsomes 0.5 mg protein/mL, 1 μM, NADPH, 37°C, read-out: Liver microsomal stability half-life (t1/2, rat))?
**A.** Its half-life at 1 μM is 0.255 ± 0.0233 h.

**Q.** What about the microsomal CLint at 1 μM ([4]; rat liver microsomes, calculated from rat microsomal half-life, read-out: In vitro intrinsic clearance CLint, in vitro (Rat)) of the same compound?
**A.** The microsomal CLint at 1 μM was 91 ± 8.4 µL/min/mg.

**Q.** And the CLint scaled at 1 μM ([4]; rat liver microsomes, scaled from rat microsomal half-life, liver weight 40 g/kg, read-out: In vivo intrinsic clearance CLint, in vivo (Rat))?
**A.** The CLint scaled at 1 μM was 164 ± 15 mL/min/kg.

**Q.** What about the microsomal CLint at 1 μM ([5]; human liver microsomes, calculated from human microsomal half-life, read-out: In vitro intrinsic clearance CLint, in vitro (Human)) of the same compound?
**A.** Its microsomal CLint at 1 μM is 64 ± 8.1 µL/min/mg.

**Q.** What about the CLint scaled at 1 μM ([5]; human liver microsomes, scaled from human microsomal half-life, liver weight 21 g/kg, read-out: In vivo intrinsic clearance CLint, in vivo (Human)) of the same compound?
**A.** The CLint scaled at 1 μM was 60 ± 7.7 mL/min/kg.

**Q.** And the half-life at 1 μM ([5]; human liver microsomes 0.5 mg protein/mL, 1 μM, NADPH, 37°C, read-out: Liver microsomal stability half-life (t1/2, human))?
**A.** The half-life at 1 μM was 0.365 ± 0.0467 h.

**Q.** And the Papp at 120 min, 10 μM [6]?
**A.** Its Papp at 120 min, 10 μM is 9.7 ± 1.8 ×10⁻⁶ cm/s.

**Q.** What about the “Plasma protein to which the drug is bound” value ([7]; at 2 μM) of the same compound?
**A.** Its value is “mostly bound to serum albumin”.

**Q.** And the fraction unbound at 2 μM ([7]; plasma, read-out: Plasma protein binding (bound drug %) (converted))?
**A.** The fraction unbound at 2 μM was 0.076.

**Q.** And the bioavailability ([8]; male, BALB/c, mouse, plasma, oral, 5 mg/kg, oral vs intravenous, 5 mg/kg, read-out: F (bioavailability))?
**A.** The bioavailability was ~38.2%.

**Q.** And the AUC(0-inf) [8, 10]?
**A.** Its AUC(0-inf) is 677 ± 264 ng·h/mL.

**Q.** What about the MRT [8, 10] of the same compound?
**A.** The MRT was 1.58 ± 0.32 h.

**Q.** What about the clearance [8, 10] of the same compound?
**A.** The clearance was 144 mL/min/kg.

**Q.** And the AUC(0-t) [8, 11]?
**A.** Its AUC(0-t) is 661 ± 253 ng·h/mL.

**Q.** And the Vd ([8]; mouse, plasma, intravenous (i.v) 5 mg/kg, n = 4, read-out: Vss)?
**A.** Its Vd is 12.9 ± 4.66 L/kg.

**Q.** And the half-life [8, 11]?
**A.** Its half-life is 1.37 ± 0.29 h.

**Q.** What about the AUC(0-inf) [8, 12] of the same compound?
**A.** Its AUC(0-inf) is 302 ± 209 ng·h/mL.

**Q.** What about the Cmax [8, 12] of the same compound?
**A.** Its Cmax is 137 ± 100 ng/mL.

**Q.** And the MRT [8, 12]?
**A.** Its MRT is 1.9 ± 0.55 h.

**Q.** And the Tmax [8, 12]?
**A.** The Tmax was 0.8 ± 0.67 h.

**Q.** What about the AUC(0-t) [8, 13] of the same compound?
**A.** Its AUC(0-t) is 292 ± 202 ng·h/mL.

**Q.** What about the half-life [8, 13] of the same compound?
**A.** The half-life was 1.13 ± 0.27 h.

**Q.** What about the “Share of total AUC (AUC∞) covered by AUC8h” value ([8]; oral 5 mg/kg) of the same compound?
**A.** The value was “approximately 96.7%”.

**Q.** And the “Stability under sample handling and processing” value [9]?
**A.** Its value is “stable under various conditions of sample handling and processing”.
